The values below come from PubChem BioAssay (NCI).

Each structure is given as a SMILES string. Where “and” joins values, the source holds several entries; their conditions need not be identical. Equal entries are not always repeated.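 Where inhibition never reached the appropriate level, the endpoint shown equals the highest concentration tested. Otherwise, values were interpolated linearly from a five-concentration, 48-hour dose response in 96-well plates. GI50: concentration for 50% inhibition of growth. The concentration for full growth arrest is given as TGI.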 Where only a bound is given, the exact number is not on record here.

Among the test systems are NCI-H226 lung; KM12 colon; SF-268 CNS; HT29 colon; CAKI-1 renal; TK-10 renal; U251 CNS; MCF7 breast; K-562 leukemia; UACC-62 melanoma.
Common to all, as to test: NCI tumour cell line growth inhibition, 48 h

With `COc1cc2c3c(n(CCCN=[N+]=[N-])c(=O)c2cc1OC)-c1ccc(NC(C)=O)cc1C3=O`, the GI50 in the test with NCI-H226 lung was over 50 µM; with KM12 colon, over 50 µM; with SF-268 CNS, over 50 µM; in the test on HT29 colon, over 50 µM; in the test with CAKI-1 renal it was 8.39 µM; in the test on TK-10 renal, over 50 µM. Further, the GI50 with U251 CNS, in the test on MCF7 breast, with K-562 leukemia and in the test on UACC-62 melanoma was over 50 µM in each case. The TGI with NCI-H226 lung, with KM12 colon, in the test with SF-268 CNS, in the test on HT29 colon, with CAKI-1 renal and in the test on TK-10 renal was over 50 µM in each case. Further, the TGI in the test with U251 CNS, with MCF7 breast, with K-562 leukemia and in the test with UACC-62 melanoma was over 50 µM throughout.
With `CC[C@H](C)C(=O)O[C@H]1C[C@@H](C)C=C2C=C[C@H](C)[C@H](CC[C@@H]3C[C@@H](O)CC(=O)O3)[C@H]21`, the GI50 is 10.1 µM and 6.22 µM in the test with NCI-H226 lung; 26.4 µM with KM12 colon; 24.7 µM and 21.4 µM in the test on HT29 colon; 2.14 µM and 1.9 µM in the test with CAKI-1 renal; 26.3 µM and 19.3 µM with TK-10 renal; 32.1 µM and 14.9 µM with MCF7 breast. The GI50 with K-562 leukemia was 27.7 µM and 12.8 µM; in the test with UACC-62 melanoma, 2.83 µM and 2.59 µM. The TGI in the test on NCI-H226 lung is 54.7 µM and > 51 µM and > 30 µM; with KM12 colon, over 100 µM; in the test on HT29 colon it was over 100 µM; in the test with CAKI-1 renal it was 6.59 µM and 6.21 µM and 4.78 µM; in the test with TK-10 renal, over 100 µM; in the test with MCF7 breast it was over 100 µM. For the same compound, the TGI in the test on K-562 leukemia is over 100 µM; in the test on UACC-62 melanoma it was 18.9 µM and 17.2 µM and > 30 µM.
For the compound `CCSc1nc(N)c(C#N)c(-c2ccc(OC)c(OC)c2)c1C#N`, the GI50 is 15.2 µM in the test on KM12 colon; 11.1 µM in the test with SF-268 CNS; 16.6 µM in the test on CAKI-1 renal; 49.6 µM in the test on TK-10 renal; 17.6 µM in the test with U251 CNS; 10.6 µM with MCF7 breast. For the same compound, the GI50 in the test on K-562 leukemia is 10.7 µM; with UACC-62 melanoma, 8.65 µM. Besides, the TGI in the test with KM12 colon was over 50 µM; in the test on SF-268 CNS, 35.1 µM; in the test on CAKI-1 renal, over 50 µM; with TK-10 renal, over 50 µM; in the test on U251 CNS, over 50 µM; in the test on MCF7 breast, over 50 µM. The TGI in the test on K-562 leukemia turned out to be 27.7 µM; in the test on UACC-62 melanoma it was 45.2 µM.
Regarding `CC(NNC(=S)N1CCN(c2ccccn2)CC1)c1cccc[n+]1[O-]` (configuration not stated), the TGI in the test with NCI-H226 lung, in the test with KM12 colon, with SF-268 CNS, in the test on HT29 colon, with CAKI-1 renal and in the test on TK-10 renal was over 100 µM each time. The results for the TGI in the test on U251 CNS, with MCF7 breast and with UACC-62 melanoma were over 100 µM, over 100 µM and 22.8 µM, respectively.
Turning to `O=C(O)c1ccccc1C(=O)Nc1cc2c(cc1Br)-c1ccccc1C2=O`, the TGI in the test on KM12 colon, in the test on SF-268 CNS, with HT29 colon, in the test on CAKI-1 renal, in the test on TK-10 renal and in the test with U251 CNS was over 100 µM in each case. Also, the TGI in the test with MCF7 breast, in the test with K-562 leukemia and in the test on UACC-62 melanoma was over 100 µM throughout.
On to `Nc1ccccc1-n1c2c(c3ccccc3c1=O)C(=O)c1ccccc1-2`, for which the TGI is over 100 µM in the test with NCI-H226 lung; over 100 µM in the test with KM12 colon; 48.2 µM in the test with SF-268 CNS; over 100 µM with HT29 colon; 50.7 µM in the test on CAKI-1 renal; 60.5 µM with U251 CNS. Besides, the TGI in the test with MCF7 breast, with K-562 leukemia and with UACC-62 melanoma was over 100 µM in each case.
Regarding `N#CC1=C(N)Oc2c(ccc3cccnc23)C1c1ccccc1` (configuration not stated), the values for the GI50 with NCI-H226 lung and with MCF7 breast were 11.4 µM and 0.406 µM, respectively. Moreover, the TGI with NCI-H226 lung was 50.9 µM; in the test with KM12 colon, 17.1 µM; with SF-268 CNS, over 100 µM; with CAKI-1 renal it was over 100 µM; in the test with TK-10 renal, 86.8 µM; in the test with U251 CNS, 36.2 µM. Moreover, the TGI in the test with MCF7 breast was 58.1 µM; in the test with K-562 leukemia, over 100 µM; in the test on UACC-62 melanoma it was 24.6 µM.
With `CC(C)(C)c1cc(C#N)c2c(c1)C(=O)OC2(c1ccccc1)c1ccccc1C#N` (configuration not stated), the TGI in the test on NCI-H226 lung, in the test with KM12 colon, in the test with SF-268 CNS, in the test with HT29 colon, in the test with CAKI-1 renal and in the test with TK-10 renal was over 100 µM in each case. Moreover, the TGI in the test with U251 CNS, in the test on K-562 leukemia and in the test on UACC-62 melanoma was over 100 µM throughout.
As to `Clc1ccc2c(NCCNc3nc(N4CCCCC4)nc4ccccc34)ccnc2c1`, the GI50 with NCI-H226 lung was 1.92 µM; in the test on KM12 colon it was 3.39 µM; in the test on SF-268 CNS, 2.39 µM; with HT29 colon it was 1.58 µM; with TK-10 renal, 2.15 µM; in the test on U251 CNS, 2.08 µM. In addition, the GI50 with MCF7 breast is 0.748 µM; in the test with UACC-62 melanoma, 1.95 µM. The TGI in the test with NCI-H226 lung is 4.05 µM; with KM12 colon, 12.7 µM; with SF-268 CNS, 7.33 µM; in the test on HT29 colon, 4.1 µM; in the test on TK-10 renal, 5.13 µM; in the test on U251 CNS it was 5.15 µM. In addition, the figures for the TGI in the test with MCF7 breast and with UACC-62 melanoma were 12.6 µM and 3.7 µM, respectively.
With `COc1ccc(/C=N/C2=NNC(C)(c3ccccc3O)N2C(Cc2c[nH]c3ccccc23)C(=O)O)cc1` (configuration not stated), the GI50 is 2.16 µM with NCI-H226 lung; 2.6 µM in the test with KM12 colon; 3.11 µM in the test on SF-268 CNS; 2.36 µM in the test on HT29 colon; 5.01 µM with TK-10 renal; 3.44 µM in the test on U251 CNS. Moreover, the GI50 with MCF7 breast was 2.23 µM; with K-562 leukemia, 2.38 µM; with UACC-62 melanoma it was 1.86 µM. Also, the TGI in the test with NCI-H226 lung is 10.3 µM; in the test on KM12 colon, 10.2 µM; with SF-268 CNS, 13.8 µM; with HT29 colon, 9.51 µM; in the test on TK-10 renal, 10.9 µM; with U251 CNS, 11.6 µM. For the same compound, the TGI is 10.9 µM in the test on MCF7 breast, 11.6 µM in the test with K-562 leukemia and 5.53 µM in the test with UACC-62 melanoma.
With `CC/C(=N/O)C(C)C(=O)CCC(=O)Nc1ccc(Cl)cc1` (configuration not stated), the TGI in the test with NCI-H226 lung, with KM12 colon, in the test with SF-268 CNS, in the test on HT29 colon, in the test on CAKI-1 renal and in the test on TK-10 renal was over 100 µM each time. The TGI with U251 CNS, with K-562 leukemia and in the test with UACC-62 melanoma was over 100 µM throughout.
